Test results published in patent publication US20060069132A1, “Azolecarboxamide herbicides” (priority 2004, published 2006).

What was measured:
corn = test: Test B pre-/postemergence herbicide test; format: in vivo, Zea mays
Procedure, shortened: (§1)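 Formulation: non-phytotoxic solvent mix with surfactant. Timing: preemergence on seed and postemergence on 2–18 cm plants, applied concurrently. Readout after 13–15 d greenhouse: visual 0–100 control rating against controls.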

wild oat = test: Test B postemergence herbicide test; format: in vivo, Avena fatua; conditions: scale 0 (no effect) to 100 (complete control); for Plant response rating, Oat, Wild: Postemergence, 500 g ai/ha, visual rating after 13 to 15 days; for Oat, Wild plant response rating: postemergence, 125 g ai/ha, visual rating
Procedure, shortened: (§2)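 Read-out: visual comparison with controls, scored 0 to 100, where 100 means complete control and 0 no effect. Formulated chemicals were applied postemergence to plants 2–18 cm tall (1- to 4-leaf), or to flooded-paddy plants at the 2-leaf stage, then held 13 to 15 days under glass.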

barnyardgrass [1] = test: Test B pre-/postemergence herbicide test; format: in vivo, Echinochloa crus-galli
Procedure, shortened: (§3)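 Seeds were planted and treated preemergence with compounds formulated in a non-phytotoxic solvent mixture containing surfactant, while plants at the 1- to 4-leaf stage (2 to 18 cm) received postemergence sprays. Flooded paddy plants were grown to the 2-leaf stage. After 13 to 15 days in a greenhouse, injury was visually rated 0–100 against untreated controls.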

pigweed = test: Test B pre-/postemergence herbicide test; format: in vivo, Amaranthus retroflexus; conditions: for Pigweed plant response rating: postemergence, visual rating
Procedure, shortened: as §1

wheat = test: Test B postemergence herbicide test; format: in vivo, Triticum aestivum; parameters: key to Wheat plant response rating: 0 = no effect, 100 = complete control; conditions: scale 0 (no effect) to 100 (complete control); for Plant response rating, Wheat: Postemergence, 500 g ai/ha, visual rating after 13 to 15 days; for Wheat plant response rating: postemergence, 125 g ai/ha, visual rating
Procedure, shortened: as §2

cocklebur = test: Test B pre-/postemergence herbicide test; format: in vivo, Xanthium strumarium
Procedure, shortened: as §3

large crabgrass = test: Test B pre-/postemergence herbicide test; format: in vivo, Digitaria sanguinalis
Procedure, shortened: as §1

morningglory = test: Test B pre-/postemergence herbicide test; format: in vivo, Ipomoea coccinea; conditions: for Morningglory plant response rating: postemergence, visual rating
Procedure, shortened: as §3

rice = test: Test B flooded paddy test; format: in vivo, Oryza sativa; conditions: 1000 g ai/ha, visual rating, scale 0 to 100 (0 no effect, 100 complete control), 13 to 15 days
Procedure, shortened: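 Scale 0–100: zero equals no visible effect, 100 complete control, judged by eye relative to controls. Timing: 13 to 15 days in greenhouse post-treatment. Growth stage at spraying: two leaves (paddy) or one to four leaves, 2–18 cm (postemergence).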

velvetleaf = test: Test B pre-/postemergence herbicide test; format: in vivo, Abutilon theophrasti; conditions: for Velvetleaf plant response rating: postemergence, visual rating
Procedure, shortened: as §1

giant foxtail = test: Test B pre-/postemergence herbicide test; format: in vivo, Setaria faberi
Procedure, shortened: as §1

lambsquarters = test: Test B pre-/postemergence herbicide test; format: in vivo, Chenopodium album; conditions: for Lambsquarters plant response rating: postemergence, visual rating
Procedure, shortened: as §1

barnyardgrass [2] = test: Test B flooded paddy test; format: in vivo, Echinochloa crus-galli; conditions: 1000 g ai/ha, visual rating, scale 0 to 100 (0 no effect, 100 complete control), 13 to 15 days
Procedure, shortened: (§4)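 Postemergence plants were sprayed with formulated test chemicals at 2 to 18 cm height (1- to 4-leaf stage); paddy species were grown to the 2-leaf stage. After 13 to 15 days in a greenhouse, injury was rated visually against untreated controls on a 0–100 scale (0 = no effect, 100 = complete control).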

Surinam grass = test: Test B pre-/postemergence herbicide test; format: in vivo, Urochloa decumbens; conditions: for Surinam Grass plant response rating: postemergence, visual rating
Procedure, shortened: as §1

[3] = test system: small flower umbrella sedge; test: Test B flooded paddy test; format: in vivo, Cyperus difformis; conditions: 1000 g ai/ha, visual rating, scale 0 to 100 (0 no effect, 100 complete control), 13 to 15 days
Procedure, shortened: as §4

[4] = Postemergence, 500 g ai/ha, visual rating after 13 to 15 days, scale 0 (no effect) to 100 (complete control)
[5] = Preemergence, 500 g ai/ha, scale 0 to 100
[6] = postemergence, 125 g ai/ha, visual rating, scale 0 (no effect) to 100 (complete control)
[7] = preemergence, 125 g ai/ha, 0 to 100 scale, 0 is no effect, 100 is complete control
[8] = 125 g ai/ha, scale 0 (no effect) to 100 (complete control)
[9] = 500 g ai/ha, visual rating 0-100, 0 no effect, 100 complete control, preemergence

CCOC(=O)c1cccc(NC(=O)c2cc(C(C)(C)C)nn2CC)c1C [Compound 88]
0: Plant response rating, Corn (corn; [7]) | Plant response rating, Oat, Wild (wild oat) | Oat, Wild plant response rating (wild oat) | Plant response rating, Wheat (wheat) | Wheat plant response rating (wheat) | Cocklebur plant response rating (cocklebur; [5]) | Plant response rating, Cocklebur (cocklebur; [7]) | Plant response rating, Morningglory (morningglory; [4]) | Morningglory plant response rating (morningglory; [8]) | Plant response rating, Morningglory (morningglory; [7]) | Plant response rating, Surinam Grass (Surinam grass; [4]) | Surinam Grass plant response rating (Surinam grass; [8])
20: Plant response rating, Surinam Grass (Surinam grass; [7])
50: Pigweed plant response rating (pigweed; [8]) | Plant response rating, Cocklebur (cocklebur; [4])
40: Rice plant response rating (rice) | Plant response rating, Velvetleaf (velvetleaf; [7]) | Plant response rating, Foxtail, Giant (giant foxtail; [4])
100: Plant response rating, Pigweed (pigweed; [7]) | Crabgrass, Large plant response rating (large crabgrass; [5]) | Plant response rating, Lambsquarters (lambsquarters; [4]) | Plant response rating, Lambsquarters (lambsquarters; [7])
30: Barnyardgrass plant response rating (barnyardgrass [1]; [6]) | Crabgrass, Large plant response rating (large crabgrass; [6]) | Velvetleaf plant response rating (velvetleaf; [8]) | Foxtail, Giant plant response rating (giant foxtail; [6])
70: Plant response rating, Corn (corn; [4]) | Plant response rating, Barnyardgrass (barnyardgrass [1]; [7]) | Plant response rating, Velvetleaf (velvetleaf; [4]) | Plant response rating, Foxtail, Giant (giant foxtail; [7]) | Lambsquarters plant response rating (lambsquarters; [8]) | Barnyardgrass plant response rating (barnyardgrass [2])
10: Corn plant response rating (corn; [6]) | Cocklebur plant response rating (cocklebur; [6])
90: Barnyardgrass plant response rating (barnyardgrass [1]; [5]) | Plant response rating, Crabgrass, Large (large crabgrass; [7]) | Foxtail, Giant plant response rating (giant foxtail; [5])
80: Sedge, Umbrella plant response rating [3]
60: Corn plant response rating (corn; [5]) | Plant response rating, Barnyardgrass (barnyardgrass [1]; [4]) | Plant response rating, Pigweed (pigweed; [4]) | Plant response rating, Crabgrass, Large (large crabgrass; [4])

CCOC(=O)c1cc(NC(=O)c2cc(C(C)(C)C)nn2CC)ccc1OC [Compound 96]
40: Plant response rating, Corn (corn; [7]) | Crabgrass, Large plant response rating (large crabgrass; [6])
70: Plant response rating, Corn (corn; [9]) | Plant response rating, Barnyardgrass (barnyardgrass [1]; [7]) | Pigweed plant response rating (pigweed; [8]) | Rice plant response rating (rice) | Velvetleaf plant response rating (velvetleaf; [8])
50: Plant response rating, Barnyardgrass (barnyardgrass [1]; [4]) | Plant response rating, Crabgrass, Large (large crabgrass; [4]) | Plant response rating, Velvetleaf (velvetleaf; [7]) | Plant response rating, Foxtail, Giant (giant foxtail; [4])
100: Plant response rating, Pigweed (pigweed; [9]) | Plant response rating, Pigweed (pigweed; [4]) | Plant response rating, Pigweed (pigweed; [7]) | Plant response rating, Cocklebur (cocklebur; [4]) | Plant response rating, Crabgrass, Large (large crabgrass; [9]) | Plant response rating, Lambsquarters (lambsquarters; [9]) | Plant response rating, Lambsquarters (lambsquarters; [4]) | Lambsquarters plant response rating (lambsquarters; [8]) | Plant response rating, Lambsquarters (lambsquarters; [7])
10: Corn plant response rating (corn; [6]) | Wheat plant response rating (wheat) | Plant response rating, Morningglory (morningglory; [9])
60: Plant response rating, Foxtail, Giant (giant foxtail; [7])
90: Plant response rating, Barnyardgrass (barnyardgrass [1]; [9]) | Cocklebur plant response rating (cocklebur; [6]) | Plant response rating, Velvetleaf (velvetleaf; [9]) | Plant response rating, Foxtail, Giant (giant foxtail; [9]) | Sedge, Umbrella plant response rating [3]
80: Plant response rating, Velvetleaf (velvetleaf; [4]) | Barnyardgrass plant response rating (barnyardgrass [2]) | Plant response rating, Surinam Grass (Surinam grass; [9])
0: Barnyardgrass plant response rating (barnyardgrass [1]; [6]) | Plant response rating, Cocklebur (cocklebur; [9]) | Plant response rating, Cocklebur (cocklebur; [7]) | Plant response rating, Morningglory (morningglory; [4]) | Morningglory plant response rating (morningglory; [8]) | Plant response rating, Morningglory (morningglory; [7])
30: Foxtail, Giant plant response rating (giant foxtail; [6]) | Plant response rating, Surinam Grass (Surinam grass; [4])
20: Plant response rating, Corn (corn; [4]) | Plant response rating, Oat, Wild (wild oat) | Oat, Wild plant response rating (wild oat) | Plant response rating, Wheat (wheat) | Plant response rating, Crabgrass, Large (large crabgrass; [7]) | Surinam Grass plant response rating (Surinam grass; [8]) | Plant response rating, Surinam Grass (Surinam grass; [7])

C=Cn1nc(C(C)(C)C)cc1C(=O)Nc1cccc(C(C)=NO)c1 [Compound 114]
20: Barnyardgrass plant response rating (barnyardgrass [1]; [6]) | Plant response rating, Wheat (wheat) | Wheat plant response rating (wheat) | Plant response rating, Surinam Grass (Surinam grass; [4]) | Plant response rating, Surinam Grass (Surinam grass; [7])
70: Barnyardgrass plant response rating (barnyardgrass [2])
0: Plant response rating, Corn (corn; [7])
80: Plant response rating, Barnyardgrass (barnyardgrass [1]; [9]) | Plant response rating, Pigweed (pigweed; [7]) | Cocklebur plant response rating (cocklebur; [6]) | Lambsquarters plant response rating (lambsquarters; [8])
40: Plant response rating, Crabgrass, Large (large crabgrass; [4]) | Plant response rating, Velvetleaf (velvetleaf; [7])
30: Plant response rating, Barnyardgrass (barnyardgrass [1]; [4]) | Crabgrass, Large plant response rating (large crabgrass; [6]) | Plant response rating, Foxtail, Giant (giant foxtail; [4]) | Foxtail, Giant plant response rating (giant foxtail; [6]) | Plant response rating, Surinam Grass (Surinam grass; [9])
90: Pigweed plant response rating (pigweed; [8]) | Plant response rating, Cocklebur (cocklebur; [4]) | Plant response rating, Crabgrass, Large (large crabgrass; [7]) | Plant response rating, Foxtail, Giant (giant foxtail; [9]) | Plant response rating, Lambsquarters (lambsquarters; [4]) | Sedge, Umbrella plant response rating [3]
100: Plant response rating, Pigweed (pigweed; [9]) | Plant response rating, Pigweed (pigweed; [4]) | Plant response rating, Crabgrass, Large (large crabgrass; [9]) | Plant response rating, Lambsquarters (lambsquarters; [9]) | Plant response rating, Lambsquarters (lambsquarters; [7])
60: Plant response rating, Velvetleaf (velvetleaf; [9]) | Plant response rating, Velvetleaf (velvetleaf; [4])
50: Plant response rating, Barnyardgrass (barnyardgrass [1]; [7]) | Rice plant response rating (rice) | Velvetleaf plant response rating (velvetleaf; [8]) | Plant response rating, Foxtail, Giant (giant foxtail; [7])
10: Plant response rating, Corn (corn; [9]) | Plant response rating, Oat, Wild (wild oat) | Oat, Wild plant response rating (wild oat) | Plant response rating, Cocklebur (cocklebur; [9]) | Plant response rating, Cocklebur (cocklebur; [7]) | Plant response rating, Morningglory (morningglory; [7]) | Surinam Grass plant response rating (Surinam grass; [8])

CC(=NO)c1cccc(NC(=O)c2cc(C(C)(C)C)nn2CCF)c1 [Compound 115]
50: Plant response rating, Barnyardgrass (barnyardgrass [1]; [4])
40: Plant response rating, Cocklebur (cocklebur; [9])
20: Plant response rating, Cocklebur (cocklebur; [7]) | Foxtail, Giant plant response rating (giant foxtail; [6])
30: Plant response rating, Corn (corn; [9]) | Plant response rating, Oat, Wild (wild oat) | Plant response rating, Wheat (wheat) | Wheat plant response rating (wheat) | Plant response rating, Crabgrass, Large (large crabgrass; [4]) | Plant response rating, Morningglory (morningglory; [7]) | Plant response rating, Foxtail, Giant (giant foxtail; [4])
60: Rice plant response rating (rice) | Velvetleaf plant response rating (velvetleaf; [8]) | Plant response rating, Surinam Grass (Surinam grass; [4]) | Surinam Grass plant response rating (Surinam grass; [8])
0: Plant response rating, Corn (corn; [7])
100: Plant response rating, Barnyardgrass (barnyardgrass [1]; [9]) | Plant response rating, Pigweed (pigweed; [9]) | Plant response rating, Pigweed (pigweed; [4]) | Plant response rating, Crabgrass, Large (large crabgrass; [9]) | Plant response rating, Velvetleaf (velvetleaf; [9]) | Plant response rating, Foxtail, Giant (giant foxtail; [9]) | Plant response rating, Lambsquarters (lambsquarters; [9]) | Plant response rating, Lambsquarters (lambsquarters; [4]) | Plant response rating, Lambsquarters (lambsquarters; [7])
80: Plant response rating, Barnyardgrass (barnyardgrass [1]; [7]) | Pigweed plant response rating (pigweed; [8]) | Plant response rating, Pigweed (pigweed; [7]) | Cocklebur plant response rating (cocklebur; [6]) | Plant response rating, Velvetleaf (velvetleaf; [4]) | Plant response rating, Velvetleaf (velvetleaf; [7]) | Plant response rating, Foxtail, Giant (giant foxtail; [7]) | Lambsquarters plant response rating (lambsquarters; [8])
10: Oat, Wild plant response rating (wild oat) | Barnyardgrass plant response rating (barnyardgrass [1]; [6]) | Crabgrass, Large plant response rating (large crabgrass; [6])
70: Plant response rating, Surinam Grass (Surinam grass; [9]) | Plant response rating, Surinam Grass (Surinam grass; [7])
90: Plant response rating, Cocklebur (cocklebur; [4]) | Plant response rating, Crabgrass, Large (large crabgrass; [7]) | Plant response rating, Morningglory (morningglory; [9]) | Barnyardgrass plant response rating (barnyardgrass [2]) | Sedge, Umbrella plant response rating [3]
